This note sets out measurements from patent US12522597B2, “Methods and compositions for modulating splicing” (Skyhawk Therapeutics, Inc., priority 2019, dated 2026).

The subject of one data set is mHTT protein. The data set can be described thus: mHTT protein assay (2B7-MW1, Mesoscale Discovery). In kind it is cell-based, human. Conditions: GM04724 (CAG 70/20) Huntington's disease patient lymphoblast cells, 48 hours, 2B7-MW1 MSD; read-out: HTT Potency - Protein EC50 mHTT (average). In outline:
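GM04724 Huntington's patient lymphoblasts (CAG 70/20) were treated for 48 h at 10 μM to 0.6 nM. mHTT was quantified by 2B7-MW1 MSD immunoassay, whose signal depends on polyQ expansion and HTT fragment size. Viability was run on a parallel plate by CellTiter-Glo.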

Another data set deals with MDR1. In words: MDCK-MDR1 permeability assay (BBB penetration potential). It counts as in vitro ADME. Conditions: dog; for efflux ratio at 120 min, 5 μM: MDCK-MDR1, pH 7.4, MDCK-MDR1: Efflux; for Papp A→B at 120 min, 5 μM: MDCK-MDR1, pH 7.4, MDCK-MDR1: Papp A-B; for Papp B→A at 120 min, 5 μM: MDCK-MDR1, pH 7.4, MDCK-MDR1: Papp B-A. The protocol: (§1) Each determination is performed in duplicate. […] Analytical conditions are outlined below.

Data set [1] relates to MDR1-MDCK cell monolayers. The description is as above. It counts as in vitro ADME. Conditions: dog, MDCK-MDR1, 120 min, 5 μM, pH 7.4. The procedure: as §1

In general, EC50 refers to the concentration at which the effect is half-maximal. A word on the efflux ratio: it is the permeability from basolateral to apical divided by that in the opposite direction, in the common usage. A word on the Papp A→B: it is the apparent permeability from the apical to the basolateral side of a cell layer. Higher therefore signals fast passage. For orientation: Papp B→A means how fast a substance crosses the layer from the basolateral side. `Oc1cc(-c2ccnnc2)ccc1-c1ccc(O[C@@H]2C[C@H]3CCC[C@H](N3)[C@@H]2F)nn1` (single isomer, unassigned) [87-ENT1]: the EC50 with mHTT protein lay in the range of 101 to 500 nM. Further, in the data set with MDR1, the efflux ratio at 120 min, 5 μM was found to be 20; the Papp A→B at 120 min, 5 μM is 2.75 ×10⁻⁶ cm/s; the Papp B→A at 120 min, 5 μM is 55.8 ×10⁻⁶ cm/s. Further, in data set [1], the “MDCK-MDR1: % Recov A-B” value is on record as 92% and the “MDCK-MDR1: % Recov B-A” value came out at 100%.
With `Oc1cc(-n2cccn2)ccc1-c1ccc(O[C@@H]2C[C@H]3CC[C@H](N3)[C@@H]2F)nn1` (single isomer, unassigned) [35-ENT1], in the data set on mHTT protein, the EC50 lay within 101 to 500 nM. Besides, in the data set on MDR1, the efflux ratio at 120 min, 5 μM is 4; the apical-to-basolateral permeability (Papp A→B) at 120 min, 5 μM worked out at 8.31 ×10⁻⁶ cm/s; the apparent permeability from basolateral to apical (Papp B→A) at 120 min, 5 μM turned out to be 32.8 ×10⁻⁶ cm/s. In data set [1], the “MDCK-MDR1: % Recov A-B” value came out at 77% and the “MDCK-MDR1: % Recov B-A” value is reported as 87%.
For the molecule `Oc1cc(-c2cn[nH]c2)ccc1-c1ccc(O[C@H]2C[C@@H]3COC[C@@H](N3)[C@H]2F)nn1` (single isomer, unassigned) [123-ENT2], the EC50 in the data set with mHTT protein was in the range of 101 to 500 nM. Moreover, in the data set on MDR1, the efflux ratio at 120 min, 5 μM turned out to be 10; the Papp A→B at 120 min, 5 μM is 7.03 ×10⁻⁶ cm/s; the Papp B→A at 120 min, 5 μM amounted to 69.8 ×10⁻⁶ cm/s. In addition, in data set [1], the “MDCK-MDR1: % Recov A-B” value turned out to be 87% and the “MDCK-MDR1: % Recov B-A” value is recorded as 93%.
As for `Oc1cc(-c2ccn3cnnc3c2)ccc1-c1ccc(O[C@H]2C[C@@H]3CCC[C@@H](N3)[C@H]2F)nn1` (single isomer, unassigned) [86-ENT2], the EC50 in the data set with mHTT protein was in the range of 101 to 500 nM. For the same molecule, in the data set on MDR1, the efflux ratio at 120 min, 5 μM is 48; the Papp A→B at 120 min, 5 μM stood at 0.42 ×10⁻⁶ cm/s; the Papp B→A at 120 min, 5 μM was determined as 20.3 ×10⁻⁶ cm/s. Moreover, in data set [1], the “MDCK-MDR1: % Recov A-B” value came out at 75% and the “MDCK-MDR1: % Recov B-A” value turned out to be 74%.
In the case of `Oc1cc(-c2ccnnc2)ccc1-c1ccc(O[C@H]2C[C@@H]3CCC[C@@H](N3)[C@H]2F)nn1` (single isomer, unassigned) [87-ENT2], the EC50 with mHTT protein fell in the range of 101 to 500 nM. In the data set on MDR1, the efflux ratio at 120 min, 5 μM was found to be 14; the Papp A→B at 120 min, 5 μM turned out to be 3.9 ×10⁻⁶ cm/s; the Papp B→A at 120 min, 5 μM was determined as 56.1 ×10⁻⁶ cm/s. Further, in data set [1], the “MDCK-MDR1: % Recov A-B” value was determined as 105% and the “MDCK-MDR1: % Recov B-A” value is 108%.
Turning to `Cc1cnc(-c2ccc(-c3ccc(O[C@@H]4C[C@H]5CCC[C@H](N5)[C@@H]4F)nn3)c(O)c2)cn1` (single isomer, unassigned) [78-ENT1], the EC50 in the data set on mHTT protein fell in the range of 101 to 500 nM. Moreover, in the data set with MDR1, the efflux ratio at 120 min, 5 μM stood at 3; the Papp A→B at 120 min, 5 μM was 7.17 ×10⁻⁶ cm/s; the Papp B→A at 120 min, 5 μM is 24.5 ×10⁻⁶ cm/s. In data set [1], the “MDCK-MDR1: % Recov A-B” value is 65% and the “MDCK-MDR1: % Recov B-A” value is listed as 78%.
As to `Oc1cc(-c2nnco2)c(F)cc1-c1ccc(O[C@H]2C[C@@H]3CCC[C@@H](N3)[C@H]2F)nn1` (single isomer, unassigned) [143-ENT1], the EC50 in the data set with mHTT protein fell in the range of 51 to 100 nM. In the data set with MDR1, the efflux ratio at 120 min, 5 μM came to 8; the Papp A→B at 120 min, 5 μM was 6.56 ×10⁻⁶ cm/s; the basolateral-to-apical permeability (Papp B→A) at 120 min, 5 μM stood at 55.7 ×10⁻⁶ cm/s. Moreover, in data set [1], the “MDCK-MDR1: % Recov A-B” value is 81% and the “MDCK-MDR1: % Recov B-A” value came out at 93%.
As for `Cc1cc(-c2ccc(-c3ccc(O[C@@H]4C[C@H]5CCC[C@H](N5)[C@@H]4F)nn3)c(O)c2)cnn1` (single isomer, unassigned) [90-ENT1], the EC50 with mHTT protein lay in the range of 101 to 500 nM. In addition, in the data set with MDR1, the efflux ratio at 120 min, 5 μM was determined as 33; the Papp A→B at 120 min, 5 μM is 1.82 ×10⁻⁶ cm/s; the basolateral-to-apical permeability (Papp B→A) at 120 min, 5 μM was found to be 60.5 ×10⁻⁶ cm/s. Besides, in data set [1], the “MDCK-MDR1: % Recov A-B” value is recorded as 103% and the “MDCK-MDR1: % Recov B-A” value turned out to be 99%.
`Cc1cncc(-c2ccc(-c3ccc(O[C@@H]4C[C@H]5CCC[C@H](N5)[C@@H]4F)nn3)c(O)c2)c1` (single isomer, unassigned) [89-ENT1]: the EC50 in the data set with mHTT protein is 501 to 10000 nM. In the data set on MDR1, the efflux ratio at 120 min, 5 μM was found to be 6; the Papp A→B at 120 min, 5 μM was 6.05 ×10⁻⁶ cm/s; the apparent permeability from basolateral to apical (Papp B→A) at 120 min, 5 μM was 33.8 ×10⁻⁶ cm/s. Further, in data set [1], the “MDCK-MDR1: % Recov A-B” value is recorded as 68% and the “MDCK-MDR1: % Recov B-A” value came out at 76%.
With `N#Cc1ccc(-c2ccc(O[C@H]3C[C@@H]4CCC[C@@H](N4)[C@H]3F)nn2)c(O)c1` (single isomer, unassigned) [110-ENT2], the EC50 in the data set with mHTT protein lay in the range of 501 to 10000 nM. Besides, in the data set on MDR1, the efflux ratio at 120 min, 5 μM came out at 8; the Papp A→B at 120 min, 5 μM came out at 7.44 ×10⁻⁶ cm/s; the Papp B→A at 120 min, 5 μM came to 56.9 ×10⁻⁶ cm/s. Moreover, in data set [1], the “MDCK-MDR1: % Recov A-B” value worked out at 95% and the “MDCK-MDR1: % Recov B-A” value was 97%.
`Cc1ccc(-c2ccc(-c3ccc(O[C@H]4C[C@@H]5CCC[C@@H](N5)[C@H]4F)nn3)c(O)c2)s1` (single isomer, unassigned) [100-ENT2]: the concentration giving a half-maximal response (EC50) in the data set on mHTT protein fell in the range of 101 to 500 nM. For the same molecule, in the data set with MDR1, the efflux ratio at 120 min, 5 μM turned out to be 1; the Papp A→B at 120 min, 5 μM was 1.14 ×10⁻⁶ cm/s; the Papp B→A at 120 min, 5 μM is 0.68 ×10⁻⁶ cm/s. In addition, in data set [1], the “MDCK-MDR1: % Recov A-B” value was 18% and the “MDCK-MDR1: % Recov B-A” value came to 57%.
Consider `Cn1cc(-c2cc(O)c(-c3ccc(O[C@H]4C[C@@H]5CCC[C@@H](N5)[C@H]4F)nn3)c(F)c2)cn1` (single isomer, unassigned) [118-ENT2], for which the EC50 in the data set with mHTT protein lay in the range of 101 to 500 nM. Moreover, in the data set on MDR1, the efflux ratio at 120 min, 5 μM came to 8; the Papp A→B at 120 min, 5 μM worked out at 4.5 ×10⁻⁶ cm/s; the Papp B→A at 120 min, 5 μM worked out at 36.8 ×10⁻⁶ cm/s. In data set [1], the “MDCK-MDR1: % Recov A-B” value turned out to be 52% and the “MDCK-MDR1: % Recov B-A” value came out at 80%.
Regarding `Cc1ccc(-c2ccc(-c3ccc(O[C@H]4C[C@@H]5CCC[C@@H](N5)[C@H]4F)nn3)c(O)c2)o1` (single isomer, unassigned) [99-ENT2], the 50% effective concentration (EC50) in the data set with mHTT protein is 101 to 500 nM. Besides, in the data set with MDR1, the efflux ratio at 120 min, 5 μM stood at 1; the apical-to-basolateral permeability (Papp A→B) at 120 min, 5 μM was 6.11 ×10⁻⁶ cm/s; the Papp B→A at 120 min, 5 μM was 6.02 ×10⁻⁶ cm/s. Besides, in data set [1], the “MDCK-MDR1: % Recov A-B” value is reported as 16% and the “MDCK-MDR1: % Recov B-A” value amounted to 55%.
With `Oc1cc2cccnc2cc1-c1ccc(O[C@H]2C[C@@H]3CCC[C@@H](N3)[C@H]2F)nn1` (single isomer, unassigned) [105-ENT2], the EC50 in the data set with mHTT protein lay in the range of 101 to 500 nM. In the data set with MDR1, the efflux ratio at 120 min, 5 μM came out at 6; the Papp A→B at 120 min, 5 μM came to 6.58 ×10⁻⁶ cm/s; the Papp B→A at 120 min, 5 μM amounted to 37.2 ×10⁻⁶ cm/s. In data set [1], the “MDCK-MDR1: % Recov A-B” value is 91% and the “MDCK-MDR1: % Recov B-A” value is recorded as 70%.
Consider `Cn1cc(-c2cc(O)c(-c3ccc(O[C@@H]4CC5CC[C@H](N5)[C@@H]4F)nn3)cn2)cn1` (single isomer, unassigned) [63-ENT1], for which the EC50 with mHTT protein lay within 501 to 10000 nM. Further, in the data set with MDR1, the efflux ratio at 120 min, 5 μM is 37; the Papp A→B at 120 min, 5 μM amounted to 0.29 ×10⁻⁶ cm/s; the Papp B→A at 120 min, 5 μM was 10.9 ×10⁻⁶ cm/s. In data set [1], the “MDCK-MDR1: % Recov A-B” value came to 103% and the “MDCK-MDR1: % Recov B-A” value was 110%.
`Oc1cc(-c2ccc3nccn3c2)ccc1-c1ccc(O[C@@H]2C[C@H]3CCC[C@H](N3)[C@@H]2F)nn1` (single isomer, unassigned) [84-ENT1]: the EC50 in the data set on mHTT protein is 16 to 50 nM. Further, in the data set with MDR1, the efflux ratio at 120 min, 5 μM is 11; the Papp A→B at 120 min, 5 μM was determined as 1.56 ×10⁻⁶ cm/s; the Papp B→A at 120 min, 5 μM turned out to be 17 ×10⁻⁶ cm/s. Also, in data set [1], the “MDCK-MDR1: % Recov A-B” value was found to be 44% and the “MDCK-MDR1: % Recov B-A” value came to 72%.
`Oc1cc2ccncc2cc1-c1ccc(O[C@@H]2C[C@H]3CCC[C@H](N3)[C@@H]2F)nn1` (single isomer, unassigned) [81-ENT1]: the EC50 in the data set with mHTT protein lay within 501 to 10000 nM. For the same molecule, in the data set on MDR1, the efflux ratio at 120 min, 5 μM came to 3; the Papp A→B at 120 min, 5 μM was found to be 7.34 ×10⁻⁶ cm/s; the Papp B→A at 120 min, 5 μM is 22.8 ×10⁻⁶ cm/s. For the same molecule, in data set [1], the “MDCK-MDR1: % Recov A-B” value is 69% and the “MDCK-MDR1: % Recov B-A” value came out at 77%.
